35 compounds from US7229987B2, “Multicyclic compounds for use as melanin concentrating hormone antagonists in the treatment of obesity and diabetes” (Eli Lilly and Company, priority 2002, dated 2007) can be followed below.

The term melting point denotes the temperature, or range, at which the solid turns liquid. Compound `c1ccc(OCCSCc2nnc(-c3ccc(OCCN4CCCCCC4)cc3)o2)cc1` [Example 86, 1-(2-{4-[5-(2-phenoxy-ethylsulfanylmethyl)-[1,3,4]oxadiazol-2-yl]-phenoxy}-ethyl)-azepane] gave a melting point of 40 °C.
As for `CN(C)CCCOc1ccc(-c2nnc(CSCCOc3ccccc3OC(F)(F)F)o2)cc1` [Example 275, [3-(4-{5-[2-(2-trifluoromethoxy-phenoxy)-ethylsulfanylmethyl]-[1,3,4]oxadiazol-2-yl}-phenoxy)-propyl]-dimethyl-amine], the figure is 55 to 55.5 °C.
For `c1ccc(OCCSCc2nnc(-c3ccc(OCCCN4CCC4)cc3)o2)cc1` [Example 263, 2-[4-(3-azetidin-1-yl-propoxy)-phenyl]-5-(2-phenoxy-ethylsulfanylmethyl)-[1,3,4]oxadiazole], the melting point came out at 60 °C.
`CN(C)CCNC(=O)c1ccc(-c2nnc(CSCCOc3ccccc3)o2)cc1` [Example 54, N-(2-dimethylaminoethyl)-4-[5-(2-phenoxyethylsulfanylmethyl)-[1,3,4]oxadiazol-2-yl]-benzamide] displayed a melting point of 94 to 100 °C.
As for `CN1CCN(c2ccc(-c3nnc(CSCCOc4ccccc4)o3)cn2)CC1.O=C(O)/C=C\C(=O)O` [Example 293, 1-methyl-4-{5-[5-(2-phenoxy-ethylsulfanylmethyl)-[1,3,4]oxadiazol-2-yl]-pyridin-2-yl}-piperazine; maleic acid salt], the figure is 146 to 147 °C; as for `CN(C)CCCOc1ccc(-c2nnc(CSCCCOc3ccccc3)o2)cc1.O=C(O)C(=O)O` [Example 49, dimethyl-(3-{4-[5-(3-phenoxypropylsulfanylmethyl)-[1,3,4]oxadiazol-2-yl]-phenoxy}-propyl)-amine, oxalic acid salt], 131 to 133 °C.
As for `CN(C)CCCOc1ccc(-c2nnc(-c3ccc(-c4ccccc4)cc3)o2)cc1` [Example 58, {3-[4-(5-biphenyl-4-yl-[1,3,4]oxadiazol-2-yl)-phenoxy]-propyl}-dimethylamine], the figure is 130 to 132 °C; as for `c1ccc(OCCSCc2nnc(-c3ccc(OCCN4CCOCC4)cc3)o2)cc1` [Example 74, 4-(2-{4-[5-(2-phenoxy-ethylsulfanylmethyl)-[1,3,4]oxadiazol-2-yl]-phenoxy}-ethyl)-morpholine], 70 to 72 °C.
As for `O=C(NCCN1CCCCC1)Nc1ccc(-c2nnc(CSCCOc3ccccc3)o2)cc1` [Example 107, 1-{4-[5-(2-phenoxy-ethylsulfanylmethyl)-[1,3,4]oxadiazol-2-yl]-3-phenyl}-3-(2-piperidin-1-yl-ethyl)-urea], the figure is 126 to 128 °C; as for `CN(C)CCNC(=O)c1ccccc1-c1nnc(CSCCOc2ccccc2)o1` [Example 64, N-(2-dimethylamino-ethyl)-2-[5-(2-phenoxy-ethylsulfanylmethyl)-[1,3,4]oxadiazol-2-yl]-benzamide], 80 to 85 °C.
For the compound `CN(C)CCCOc1ccc(-c2nnc(Cc3ccc(Oc4ccccc4)cc3)o2)cc1.O=C(O)C(=O)O` [Example 269, Dimethyl-(3-{4-[5-(4-phenoxy-benzyl)-[1,3,4]oxadiazol-2-yl]-phenoxy}-propyl)-amine, oxalic acid salt], the melting point lay within 156 to 158 °C.
As for `CN(C)CCCOc1ccc(-c2nnc(CSCCOC(C)(C)C)o2)cc1` [Example 280, (3-{4-[5-(2-tert-butoxy-ethylsulfanylmethyl)-[1,3,4]oxadiazol-2-yl]-phenoxy}-propyl)-dimethyl-amine], the figure is 84.5 to 85.5 °C; as for `c1ccc(OCCSCc2nnc(-c3ccc(OCCCN4CCOCC4)cc3)o2)cc1` [Example 87, 4-(3-{4-[5-(2-phenoxy-ethylsulfanylmethyl)-[1,3,4]oxadiazol-2-yl]-phenoxy}-propyl)-morpholine], 65 °C.
As for `c1ccc2oc(Cc3nnc(-c4ccc(OCCCN5CCCCC5)cc4)o3)cc2c1` [Example 270, 1-{3-[4-(5-Benzofuran-2-yl-methyl-[1,3,4]oxadiazol-2-yl)-phenoxy]-propyl}-piperidine], the figure is 76 to 79 °C.
As for `CN(C)CCCNC(=O)c1ccc(-c2nnc(CSCCCCOc3ccccc3)o2)cc1` [Example 48, N-(3-dimethylaminopropyl)-4-[5-(4-phenoxybutylsulfanylmethyl)-[1,3,4]oxadiazol-2-yl]-benzamide], the figure is 87 to 93 °C; as for `CN1CCCC(COc2ccc(-c3nnc(CSCCOc4ccccc4)o3)cc2)C1.O=C(O)/C=C\C(=O)O` (centres unmarked) [Example 290, 1-methyl-3-{4-[5-(2-phenoxy-ethylsulfanylmethyl)-[1,3,4]oxadiazol-2-yl]-phenoxymethyl}-piperidine; maleic acid salt], 115 to 116 °C.
Compound `c1ccc(OCCSCc2nnc(-c3ccc(OCc4ccccn4)cc3)o2)cc1` [Example 99, 2-{4-[5-(2-phenoxy-ethylsulfanylmethyl)-[1,3,4]oxadiazol-2-yl]-phenoxymethyl}-pyridine] had a melting point of 115 °C.
As for `CCN(CC)CCCOc1ccc(-c2nnc(CSCCOc3ccccc3)o2)cc1` [Example 78, diethyl-(3-{4-[5-(2-phenoxy-ethylsulfanylmethyl)-[1,3,4]oxadiazol-2-yl]-phenoxy}-propyl)-amine], the figure is 27 to 31 °C; as for `CC(C)N(CCCCOc1ccc(-c2nnc(CSCCOc3ccccc3)o2)cc1)C(C)C` [Example 262, diisopropyl-(4-{4-[5-(2-phenoxy-ethylsulfanylmethyl)-[1,3,4]oxadiazol-2-yl]-phenoxy}-butyl)-amine], 42 to 44 °C.
As for `CN(C)CCCNC(=O)c1cccc(-c2nnc(CSCCOc3ccccc3)o2)c1` [Example 62, N-(3-dimethylamino-propyl)-3-[5-(2-phenoxy-ethylsulfanylmethyl)-[1,3,4]oxadiazol-2-yl]-benzamide], the figure is 88 to 90 °C; as for `CN(C)CCCOc1ccc(-c2nnc(CSCCOc3ccccc3)s2)cc1` [Example 59, Dimethyl-(3-{4-[5-(2-phenoxyethylsulfanylmethyl)-[1,3,4]thiadiazol-2-yl]-phenoxy}-propyl)-amine], 72 to 73 °C; as for `c1ccc(OCCSCc2nnc(-c3ccc(OCCCCN4CCOCC4)cc3)o2)cc1` [Example 92, 4-(4-{4-[5-(2-phenoxy-ethylsulfanylmethyl)-[1,3,4]oxadiazol-2-yl]-phenoxy}-butyl)-morpholine], 64 to 67 °C.
As for `c1ccc(OCCSCc2nnc(-c3ccc(OCc4cccnc4)cc3)o2)cc1` [Example 100, 3-{4-[5-(2-phenoxy-ethylsulfanylmethyl)-[1,3,4]oxadiazol-2-yl]-phenoxymethyl}-pyridine], the figure is 111 to 112 °C.
For the compound `CN(C)CCCOc1ccc(-c2nnc(CSCCOc3ccccc3)o2)cc1` [Example 67, dimethyl-(3-{4-[5-(2-phenoxy-ethylsulfanylmethyl)-[1,3,4]oxadiazol-2-yl]-phenoxy}-propyl)-amine], the melting point was determined as 70 °C.
As for `Nc1ccc(-c2nnc(CSCCOc3ccccc3)o2)cc1` [Example 116, 4-[5-(2-phenoxy-ethylsulfanylmethyl)-[1,3,4]oxadiazol-2-yl]-phenylamine], the figure is 126 to 130 °C; as for `O=C(O)C(=O)O.c1ccc(OCCSCc2ncc(-c3ccc(OCCCN4CCCCCCC4)cc3)o2)cc1` [Example 267, 1-(3-{4-[2-(2-phenoxy-ethylsulfanylmethyl)-oxazol-5-yl]-phenoxy}-propyl)-azocane oxalic acid salt], 89 to 94 °C; as for `CN(C)CCCCCNC(=O)c1ccc(-c2nnc(CSCCOc3ccccc3)o2)cc1` [Example 56, N-(5-dimethylaminopentyl)-4-[5-(2-phenoxyethylsulfanylmethyl)-[1,3,4]oxadiazol-2-yl]-benzamide], 83 to 89 °C.
For `CN(C)CCCOc1ccc(-c2nnc(CSCCOc3ccccc3)n2-c2ccccc2)cc1.O=C(O)C(=O)O` [Example 247, Dimethyl-(3-{4-[5-(2-phenoxy-ethylsulfanylmethyl)-4-phenyl-4H-[1,2,4]triazol-3-yl]-phenoxy}-propyl)-amine, oxalic acid salt], the melting point is 120 to 123 °C.
In the case of `O=C(NCCN1CCCC1)Nc1ccc(-c2cnc(COCc3cc4ccccc4o3)o2)cc1` [Example 255, 1-{4-[2-(Benzofuran-2-ylmethoxymethyl)-oxazol-5-yl]-phenyl}-3-(2-pyrrolidin-1-yl-ethyl)-urea], the melting point lay in the range of 124 to 126 °C.
As for `CN(C)CCCCCOc1ccc(-c2nnc(CSCCOc3ccccc3)o2)cc1` [Example 69, dimethyl-(5-{4-[5-(2-phenoxy-ethylsulfanylmethyl)-[1,3,4]oxadiazol-2-yl]-phenoxy}-pentyl)-amine], the figure is 51 to 54 °C.
For the compound `CN(C)CCCNc1ccc(-c2nnc(CSCCOc3ccccc3)o2)cn1` [Example 259, N,N-Dimethyl-N′-{5-[5-(2-phenoxy-ethylsulfanylmethyl)-[1,3,4]oxadiazol-2-yl]-pyridin-2-yl}-propane-1,3-diamine], the melting point was 94 to 96 °C.
As for `CN(C)CCCCOc1ccc(-c2nnc(CSCCOc3ccccc3)o2)cc1` [Example 68, dimethyl-(4-{4-[5-(2-phenoxy-ethylsulfanylmethyl)-[1,3,4]oxadiazol-2-yl]-phenoxy}-butyl)-amine], the figure is 62 to 63 °C; as for `C(=C\c1ccc(-c2cnc(CSCCOc3ccccc3)o2)cc1)/CN1CCCC1` [Example 268, 2-(2-phenoxy-ethylsulfanylmethyl)-5-[4-(3-pyrrolidin-1-yl-propenyl)-phenyl]-oxazole], 73 to 75 °C; as for `CN1CCCC(Oc2ccc(-c3nnc(CSCCOc4ccccc4)o3)cc2)CC1` (centres unmarked) [Example 97, 1-methyl-4-{4-[5-(2-phenoxy-ethylsulfanylmethyl)-[1,3,4]oxadiazol-2-yl]-phenoxy}-azepane], 60 to 61 °C.
As for `CN(C)CCCNC(=O)c1ccc(-c2nnc(CSCCOc3ccc(Cl)cc3Cl)o2)cc1` [Example 44, 4-{5-[2-(2,4-dichlorophenoxy)-ethylsulfanylmethyl]-[1,3,4]-oxadiazol-2-yl}-N-(3-dimethylaminopropyl)-benzamide], the figure is 140 to 141 °C.
